Experimental data taken from US8962830B2, “Protein kinase inhibitors and methods of treatment” (The Walter and Eliza Hall Institute of Medical Research, priority 2010, dated 2015).
Where two headings read alike, the source gives them in different places.

What was measured:
[1] = target: T1, Src recombinant enzyme, N-terminally His6 tagged full-length human protein (Homo sapiens, UniProt P12931); experiment: SRC kinase inhibition assay (AlphaScreen); format: biochemical; conditions: 80 μM ATP, 90 minutes at 30 degree Celsius
T1 construct: Src recombinant enzyme was purchased as N-terminally His6 tagged full-length human protein; His6 (N); purchased
T1 sequence (P12931 whole entry): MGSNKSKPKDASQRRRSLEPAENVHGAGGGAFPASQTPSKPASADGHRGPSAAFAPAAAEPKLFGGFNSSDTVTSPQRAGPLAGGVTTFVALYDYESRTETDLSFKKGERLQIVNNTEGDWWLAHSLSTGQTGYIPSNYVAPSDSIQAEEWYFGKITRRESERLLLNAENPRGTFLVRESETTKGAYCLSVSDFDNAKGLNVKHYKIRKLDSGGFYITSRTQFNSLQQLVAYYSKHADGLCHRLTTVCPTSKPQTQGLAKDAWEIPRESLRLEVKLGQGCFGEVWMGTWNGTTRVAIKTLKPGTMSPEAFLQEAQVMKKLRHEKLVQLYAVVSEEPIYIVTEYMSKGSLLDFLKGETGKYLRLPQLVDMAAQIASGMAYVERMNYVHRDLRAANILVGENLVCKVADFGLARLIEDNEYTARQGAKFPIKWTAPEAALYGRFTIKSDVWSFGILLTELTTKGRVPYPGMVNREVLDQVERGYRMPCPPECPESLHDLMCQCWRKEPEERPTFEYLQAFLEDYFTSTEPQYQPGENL
Description: Protocol for SRC Kinase Inhibition Assay. Compounds of the invention were tested for in vitro activity in the following assay: A biotin labeled peptide was used as substrate (amino acid sequence: Biotin-[…]). Src recombinant enzyme was purchased as N-terminally His6 tagged full-length human protein. The 15 μL assay reactions were run in Greiner brand white 384-well low volume plates. […] Compounds were added in a volume of 100 nL from dilution series made up in DMSO, positive and negative control reactions receiving the same volume DMSO without compounds. The plates were sealed with adhesive seals and incubated for 90 minutes at 30 degree Celsius. The reactions were stopped with the detection reagents added at the same time. Product formation was quantified as photochemiluminescence between PerkinElmer AlphaScreenTM beads, using Streptavidin-coated donor and anti-phosphotyrosine (P-[…]) acceptor beads. […] Plates were incubated for 5 hours before being read on a PerkinElmer EnVisionTM plate reader in HTS AlphascreenTM mode. IC50 values were obtained by calculating percent inhibition (% I) for each reaction relative to controls on the same plate (% [SMILES] where CN/CP are the averages of the negative/positive reactions, respectively), then fitting the % I data vs. compound concentration [I] to % I=([…])))) where A is the lower asymptote, B is the upper asymptote, C is the IC50 value, and D is the slope factor.

RasNIH3T3 = experiment: Cellular activity, MTT cell growth assay, RasNIH3T3; format: cell-based; conditions: 96 h, read-out: RasNIH3T3 (cellular data)
LIM1215 = experiment: Cellular activity, MTT cell growth assay, LIM1215; format: cell-based; conditions: LIM1215, 96 h, read-out: LIM1215 (cellular data)
Description: (§1) A. Cells, Inhibitors and Incubation
(§2) 1. Cell Lines • LIM 1899 colon carcinoma derived epithelial cells were grown in RPMI+Adds^1+10% FCS. ^1 Additives for culture of LIM cell lines: 10 μM thioglycerol, 0.025 U/mL insulin, 1 μg/mL hydrocortisone
(§3) 2. Cell Plating in 96 Well Plate. • Assay medium: RPMI+Adds+5% FCS • Cells are trypsinized, washed once in assay medium and brought to the required concentration as described below: • Need 10^4 cells per well in 100 μL per well=10^5 per mL for plating • After washing, cells were resuspended in 5 mL and counted (1×T75 flask gives approx 2−3×10 eg^6 per mL). • Cells were then diluted to 10^5 cells/mL (need 10 mL minimum per plate). • Eg. Cell count in 5 mL is 25×10^5/mL • For 10^5/mL, dilute 1 mL to 25 mL • 100 μL per well cells were plated with multistepper pipette, over the whole plate. Plates were incubated overnight at 37° C.+5% CO2 incubator.
(§4) 3. Inhibitor Stocks • Inhibitors were dissolved in DMSO for 10 mM stocks. MW and amount of compound given was used to calculate the volume required for each. • 4× the highest concentration of the compound in the assay was calculated to prepare the working stocks. • eg 1st well final concentration in assay was 10 μM. • Therefore working stock was 40 μM • Stock solution is 10 mM→40 μM=4 μl in 1.0 mL assay medium for working stock.
(§5) 4. Plate Plan: • Rows A,B: Inhibitor 1 • Rows C,D: Inhibitor 2 • Rows E,F: Inhibitor 3 • Row G: RPMI+Adds+5% FCS (=maximum growth) • Row H: RPMI+Adds serum free (=minimum growth)
(§6) 5. Titration of Inhibitors • A 96 well plate was used to titrate the inhibitors for each assay plate: • 150 μL assay medium was added to each well of a 96 well plate. • 150 μL of Inhibitor 1 working stock was added wells A1 and B1. • Repeated with Inhibitor 2 to C1 and D1 • Repeated with Inhibitor 3 to E1 and F1 • Serial ½ dilutions were performed across the plate, rows A to F, left to right with 150 μL.
(§7) 6. Transfer Titrated Inhibitors to Cell Assay Plate: Final Volume 200 μl • Using a multichannel pipette, 100 μL was transferred from the corresponding wells of the titration plate to the cell assay plate, rows A to G. • Row H: medium was carefully removed from the cell wells with a 200 μL tip, and replaced with 200 μL serum free medium.
(§8) 7. Incubation • Plates were incubated for 4 days at 37° C. with 5% CO2.
(§9) B. Use of MTT to Measure Cell Growth
(§10) 1. MTT Preparation and Storage • MTT Sigma M-2128 5 g • Dissolved in PBS, at 5 mg/mL • 5 g bottle dissolved in 1 liter PBS (some impurities remain) • Filter sterilized and aliquoted in 50 mL tubes, stored at −20° C. • As needed, 50 mL tube was thawed and aliquoted in 5 mL tubes, re-stored at −20° C. • Stable at 4° C. for 1 month (unstable if left at 37° C. too long while thawing)
(§11) 2. MTT Solvent • a. 1M HCl: • Mixed 44.6 mL conc HCl (11.2M) in 500 mL DDW • b. Acidified isopropanol (Isopropanol with 0.04 N HCl): • Mixed 20 mL 1M HCl with 480 mL isopropanol (Propan-2-ol, iso-Propyl Alcohol)
(§12) 3. MTT Assay • After cell incubation (above): • Added 10 μL MTT to each well. • Incubated 4 hrs in 37° C. incubator. • Spun plates, 5 min, 1500 rpm. • Carefully flicked out medium into the sink, without disturbing the crystals. • Added 200 μL acidified isopropanol per well. • Placed on plate shaker, RT, speed 6.5, for 10 min-30 min. • Read OD of plates on Thermo Multiskan Ex, at 560/690 nm.
(§13) • Mosmann, T. • Rapid colorimetric assay for cellular growth and survival: application to proliferation and cytotoxic assays. Journal of Immunological Methods (1983), 65:55-63. Table with Examples of Cellular Data
(§14) The compounds in this invention display cellular activities against a range of tumour or transformed cell lines in particular colon cancer cell lines such as LIM1215, LIM2537 and LIM1899.

[2] = tested on: LIM 1899 colon carcinoma derived epithelial cells; experiment: Cellular activity, MTT cell growth assay, LIM1899; format: cell-based; conditions: 96 h, 4 days incubation
Description: as §1, §2, §3, §4, §5, §6, §7, §8, §9, §10, §11, §12, §13, §14

LIM2537 = experiment: Cellular activity, MTT cell growth assay, LIM2537; format: cell-based; conditions: 96 h, 4 days incubation
Description: as §1, §2, §3, §4, §5, §6, §7, §8, §9, §10, §11, §12, §13, §14

Solubility = format: physicochemical
[3] = tested on: SFKs (Src family kinases); conditions: reported; no discrimination between family members; cited from earlier work

| IC50 [1] [nM] | IC50 [2] [nM] | SMILES | IC50 (RasNIH3T3; MTT, 4 days incubation) [nM] | IC50 (LIM1215; MTT, 4 days incubation) [nM] | further results |
| --- | --- | --- | --- | --- | --- |
| 100 to 1000 | 900 | Cc1ccc(-c2nn(C(C)(C)CNC(=O)c3cc(C)ccn3)c3ncnc(N)c23)cc1 [Example 65] | 1670 | 960 |  |
| 1 to 100 | 900 | CC(C)(CNC(=O)c1ccccn1)n1nc(-c2ccc(Cl)cc2)c2c(N)ncnc21 [Example 75] |  |  | IC50 (LIM2537): 1600 nM |
| > 10000 | 3100 | Cc1ccc(-c2nn(C(C)(C)CNC(=O)c3ncccc3C)c3ncnc(N)c23)cc1 [Example 71] |  |  |  |
| 1000 to 10000 | 1100 | Cc1ccc(-c2nn(C(C)(C)CNC(=O)c3cccc(C)n3)c3ncnc(N)c23)cc1 [Example 73] |  |  |  |
|  | 1200 | Cc1nc(Nc2ncc(C(=O)Nc3c(C)cccc3Cl)s2)cc(N2CCN(CCO)CC2)n1 [Dasatinib, reference compound] | 9000 to 12000 | 2000 |  |
| 1 to 100 | 880 | Cc1ccc(-c2nn(C(C)(C)CNC(=O)c3cscn3)c3ncnc(N)c23)cc1 [Example 64] | 630 |  | IC50 (LIM2537): 1100 nM |
| 1 to 100 | 1600 | COc1ccnc(C(=O)NCC(C)(C)n2nc(-c3ccc(C)cc3)c3c(N)ncnc32)c1 [Example 61] | 1830 | 800 |  |
| 1 to 100 | 170 | Cc1ccc(-c2nn(C(C)(C)CNC(=O)c3ccccn3)c3ncnc(N)c23)cc1 [Example 12] | 110 | 170 | IC50 (LIM2537): 170 nM |
| 1 to 100 |  | Cc1ccc(-c2nn(C(C)(C)CNC(=O)c3cc(Br)ccn3)c3ncnc(N)c23)cc1 [Example 42] | 1900 | 900 |  |
| 1000 to 10000 |  | Cc1ccc(-c2nn(C(C)(C)CNC(=O)c3cccc(F)c3)c3ncnc(N)c23)cc1 [Example 55] |  |  |  |
| 100 to 1000 | 1700 | Cc1ccc(-c2nn(C(C)(C)CNC(=O)c3cc(Cl)ccn3)c3ncnc(N)c23)cc1 [Example 63] | 6290 | 2600 |  |
| 100 to 1000 |  | Cc1ccc(-c2nn(C(C)(C)CNC(=O)c3cnc4ccccc4n3)c3ncnc(N)c23)cc1 [Example 51] |  |  |  |

More lines, now with the values behind:

| SMILES | IC50 [1] [nM] | IC50 [2] [nM] | IC50 (RasNIH3T3; MTT, 4 days incubation) [nM] | IC50 (LIM1215; MTT, 4 days incubation) [nM] | further results |
| --- | --- | --- | --- | --- | --- |
| Cc1ccc(-c2nn(C(C)(C)CNC(=O)c3cncnc3)c3ncnc(N)c23)cc1 [Example 57] | 1000 to 10000 |  | > 20000 | 1600 |  |
| CC(C)(C)n1nc(-c2ccc(Cl)cc2)c2c(N)ncnc21 [PP2] |  |  |  |  | solubility (Solubility): poorly soluble; inhibition of SFKs [3]: potent inhibitors |
| Cc1ccc(-c2nn(C(C)(C)C)c3ncnc(N)c23)cc1 [PP1, reference compound] |  |  |  |  | solubility (Solubility): poorly soluble; IC50 (RasNIH3T3): 9250 nM; inhibition of SFKs [3]: potent inhibitors; IC50 (LIM1215): 250 nM |
| Cc1ccc(-c2nn(C(C)(C)CNC(=O)c3cnccn3)c3ncnc(N)c23)cc1 [Example 56] | 1 to 100 |  | 1620 | 400 |  |
| Cc1ccc(-c2nn(C(C)(C)CNC(=O)c3ccccc3)c3ncnc(N)c23)cc1 [Example 11] | 100 to 1000 | 1700 |  |  |  |
| Cc1ccc(-c2nn(C(C)(C)CNC(=O)c3ccncn3)c3ncnc(N)c23)cc1 [Example 62] | 1 to 100 |  | 350 | 250 |  |
| Cc1ccc(-c2nn(C(C)(C)CNC(=N)c3ccccn3)c3ncnc(N)c23)cc1 [Example 77] | 1 to 100 |  |  |  | IC50 (LIM2537): > 10000 nM |
| CC(C)(CNC(=O)c1ccccc1)n1nc(-c2ccc(Cl)cc2)c2c(N)ncnc21 [74 (compound 74F)] |  | > 20000 |  |  | IC50 (LIM2537): > 10000 nM |
| Cc1ccc(-c2nn(C(C)(C)CNC(=O)c3cc(-c4ccccc4)ccn3)c3ncnc(N)c23)cc1 [Example 66] | 1 to 100 | 310 | 500 | 520 |  |
| Cc1ccc(-c2nn(C(C)(C)CNC(=N)c3ccccc3)c3ncnc(N)c23)cc1 [Example 76] | 1000 to 10000 | 19000 |  |  | IC50 (LIM2537): > 10000 nM |
| Cc1ccc(-c2nn(C(C)(C)CNC(=O)c3cccnc3)c3ncnc(N)c23)cc1 [Example 60] | 100 to 1000 |  | 17000 | 1900 |  |
| Cc1ccc(-c2nn(C(C)(C)CNS(=O)(=O)c3ccccc3)c3ncnc(N)c23)cc1 [Example 59] | 100 to 1000 |  | > 20000 | 3100 |  |
| COCCOc1ccnc(C(=O)NCC(C)(C)n2nc(-c3ccc(C)cc3)c3c(N)ncnc32)c1 [Example 89] | 1 to 100 |  |  |  |  |
| Cc1ccc(-c2nn(C(C)(C)CNC(=O)c3ccc(F)cc3)c3ncnc(N)c23)cc1 [Example 53] | 100 to 1000 |  |  |  |  |
| Cc1ccc(-c2nn(C(C)(C)CNC(=O)CCCCCN)c3ncnc(N)c23)cc1 [84 (compound 84C)] | 100 to 1000 |  |  |  |  |
| Cc1ccc(-c2nn(C(C)(C)CNC(=O)c3cnn(-c4ccc(Br)cc4)c3C(F)(F)F)c3ncnc(N)c23)cc1 [Example 29] | 100 to 1000 |  |  |  |  |
| Cc1ccc(-c2nn(C(C)(C)CNc3ncccn3)c3ncnc(N)c23)cc1 [Example 88] | 100 to 1000 |  |  |  |  |
